Measured values published in article PMC10454678, “Synthesis of hydroxy benzoin/benzil analogs and investigation of their antioxidant, antimicrobial, enzyme inhibition, and cytotoxic activities” (Turkish Journal of Chemistry, 2021).
In brackets after ≈: the same amount, converted by molar mass. Read-outs that look alike come from different tables or passages of the source.

Columns and labels:
[1] = test system: Candida albicans ATCC60193; test: MIC, microdilution, C. albicans; type: cell-based; conditions: Candida albicans, read-out: MIC Ca
[2] = test system: Staphylococcus aureus ATCC25923; test: MIC, microdilution, S. aureus; type: cell-based; conditions: Staphylococcus aureus, ATCC25923; Gram (+); Mueller-Hinton broth, 18-24 h, 36 °C; read-out: MIC Sa
[3] = Copper ions reducing activity (CUPRAC); conditions: Trolox equivalents; 30 min dark, room temperature, 450 nm
α-glucosidase = test: α-Glucosidase inhibition; type: biochemical; conditions: PNPG, pH 6.8, 37 °C, 400 nm
Procedure: It was incubated at 37 °C for 15 min. Similarly, an enzyme-free blank was prepared. The reaction was stopped when sodium carbonate (50 μL, 0.2 M) was added.

[4] = test system: Streptococcus mutans RSKK07038; test: MIC, microdilution, S. mutans; type: cell-based; conditions: Streptococcus mutans, read-out: MIC Sm
Bacillus cereus Roma709 = test: MIC, microdilution, B. cereus; type: cell-based; conditions: Bacillus cereus, ROMA709; Gram (+); Mueller-Hinton broth, 18-24 h, 36 °C; read-out: MIC Bc
[5] = Ferric reducing antioxidant power (FRAP) assay; conditions: Trolox equivalents; compounds 2 mg/mL, 30 °C 30 min, 595 nm
[6] = test system: Escherichia coli ATCC 25922; test: MIC, microdilution, E. coli; type: cell-based; conditions: Escherichia coli
acetylcholinesterase = acetylcholinesterase (Homo sapiens, UniProt P22303); test: biochemical; conditions: Tris-HCl pH 8.0, 25 °C, 405 nm; read-out: AChE IC50 (converted)
Sequence of acetylcholinesterase (P22303 32-614, species assumed): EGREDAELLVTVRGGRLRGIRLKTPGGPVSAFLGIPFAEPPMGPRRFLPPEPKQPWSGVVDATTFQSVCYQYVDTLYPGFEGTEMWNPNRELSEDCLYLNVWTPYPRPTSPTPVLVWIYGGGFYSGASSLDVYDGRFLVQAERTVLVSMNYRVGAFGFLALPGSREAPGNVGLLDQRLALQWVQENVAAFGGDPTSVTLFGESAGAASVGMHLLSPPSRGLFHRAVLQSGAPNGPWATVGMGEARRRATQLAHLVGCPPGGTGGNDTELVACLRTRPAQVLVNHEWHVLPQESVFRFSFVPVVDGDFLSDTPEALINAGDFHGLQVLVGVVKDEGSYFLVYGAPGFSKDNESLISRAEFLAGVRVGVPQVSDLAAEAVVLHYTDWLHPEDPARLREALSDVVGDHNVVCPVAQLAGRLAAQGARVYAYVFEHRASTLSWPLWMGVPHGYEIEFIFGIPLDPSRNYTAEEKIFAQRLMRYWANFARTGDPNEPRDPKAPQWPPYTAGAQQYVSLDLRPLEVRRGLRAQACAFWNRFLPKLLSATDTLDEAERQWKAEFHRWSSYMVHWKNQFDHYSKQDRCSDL

[7] = DPPH radical scavenging activity; conditions: 0.1 mM DPPH, 50 min dark, 517 nm
[8] = test system: Yersinia pseudotuberculosis ATCC911; test: microbe, parasite or virus in culture; type: cell-based; conditions: Yersinia pseudotuberculosis, ATCC911, read-out: MIC Yp
[9] = test system: Mycobacterium smegmatis ATCC607; test: MIC, microdilution, M. smegmatis; type: cell-based; conditions: Tub., BHI broth, 36 °C; for MIC: Mycolicibacterium smegmatis, ATCC607, 72 h, read-out: MIC Ms; for MIC Ms: 72 h
butyrylcholinesterase = butyrylcholinesterase (Homo sapiens, UniProt P06276); test: biochemical; conditions: Tris-HCl pH 8.0, 25 °C, 405 nm; read-out: BChE IC50 (converted)
Sequence of butyrylcholinesterase (P06276 29-602): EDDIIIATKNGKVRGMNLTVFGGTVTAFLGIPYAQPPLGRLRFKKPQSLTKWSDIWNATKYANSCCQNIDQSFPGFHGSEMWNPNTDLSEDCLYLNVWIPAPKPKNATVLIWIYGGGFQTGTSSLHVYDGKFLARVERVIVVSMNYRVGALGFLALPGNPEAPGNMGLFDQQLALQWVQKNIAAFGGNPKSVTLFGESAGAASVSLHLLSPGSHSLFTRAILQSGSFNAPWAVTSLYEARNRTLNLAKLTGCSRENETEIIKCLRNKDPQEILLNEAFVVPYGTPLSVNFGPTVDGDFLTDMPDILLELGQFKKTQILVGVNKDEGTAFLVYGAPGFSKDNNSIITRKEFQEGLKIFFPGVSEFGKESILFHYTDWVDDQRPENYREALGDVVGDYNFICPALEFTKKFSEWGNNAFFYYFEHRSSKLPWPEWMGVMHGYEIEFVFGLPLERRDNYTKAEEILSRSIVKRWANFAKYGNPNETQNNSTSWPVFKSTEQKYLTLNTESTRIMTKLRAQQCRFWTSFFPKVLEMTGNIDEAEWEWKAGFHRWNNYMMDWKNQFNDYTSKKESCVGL

[10] = test system: Pseudomonas aeruginosa ATCC27853; test: MIC, microdilution, P. aeruginosa; type: cell-based; conditions: Pseudomonas aeruginosa
[11] = test system: human retinal normal cell line (RPE); test: MTT cell proliferation, RPE; conditions: Homo sapiens, 24 h; for GI50: read-out: GI50 RPE normal cell line; for IC50: read-out: IC50 RPE normal cell line
[12] = test system: Enterococcus faecalis ATCC29212; test: MIC, microdilution, E. faecalis; type: cell-based; conditions: Enterococcus faecalis
[13] = test system: human cervical cancer cell line (HeLa); test: MTT cell proliferation, HeLa; conditions: Homo sapiens, HeLa, 24 h; for GI50: read-out: GI50 HeLa cell line; for IC50: read-out: IC50 HeLa cell line
[14] = test system: Paenibacillus larvae DSM7030; test: MIC, microdilution, P. larvae; type: cell-based; conditions: Gram (+) nonpathogenic spore forming
[15] = test system: Bacillus subtilis ATCC1266; test: MIC, microdilution, B. subtilis; type: cell-based; conditions: Gram (+) nonpathogenic spore forming
[16] = ATCC60193, fungus, YEPD broth, 48 h, 36 °C
[17] = ATCC25922, Gram (-), Mueller-Hinton broth, 18-24 h, 36 °C, read-out: MIC Ec
[18] = ATCC27853, Gram (-), Mueller-Hinton broth, 18-24 h, 36 °C, read-out: MIC Pa

| SMILES | MIC [1, 16] [µg/mL] | MIC [2] [µg/mL] | CUPRAC, copper reducing antioxidant power [3] [μg/mL trolox/gram DW] | α-Glucosidase IC50 (α-glucosidase) [µg/mL] | MIC (Bacillus cereus Roma709) [µg/mL] | FRAP, the iron reducing antioxidant power [5] [μg/mL trolox/gram DW] | MIC [6, 17] [µg/mL] | IC50 (acetylcholinesterase) [µM] | DPPH radical scavenging capacity (SC50) [7] [mg/mL] | MIC [8] [µg/mL] | MIC [9] [µg/mL] | MIC Ms [9] [µg/mL] | IC50 (butyrylcholinesterase) [µM] | MIC [10, 18] [µg/mL] | GI50 [11] [µg/mL] | IC50 [11] [µg/mL] | GI50 [13] [µg/mL] | IC50 [13] [µg/mL] | MIC [14] [µg/mL] | MIC [15] [µg/mL] | also measured |
| --- | --- | --- | --- | --- | --- | --- | --- | --- | --- | --- | --- | --- | --- | --- | --- | --- | --- | --- | --- | --- | --- |
| O=C(C(=O)c1cccc(O)c1)c1cccc(O)c1 [Compound 11, 1,2-Bis(3-hydroxyphenyl)ethane-1,2-dione] | 36 (≈ 149 µM) | 9 (≈ 37.2 µM) | 175.00 ± 3.5 | 66.700 | 18 (≈ 74.3 µM) | 1340 ± 37.9 | 36 (≈ 149 µM) | 257 | 10.03 ± 0.8 | 145 (≈ 599 µM) | 9 to 18 (≈ 37.2 to 74.3 µM) | 9 (≈ 37.2 µM) | 1400 | 18 (≈ 74.3 µM) |  |  |  |  |  |  | MIC ([4]; RSKK07038, Gram (+), BHI broth, 72 h, 36 °C): 18 µg/mL (≈ 74.3 µM) |
| O=C(C(=O)c1cccc(O)c1)c1ccc(O)cc1 [Compound 12, 1-(4-Hydroxyphenyl)-2-(3-hydroxyphenyl)ethane-1,2-dione] | 18 (≈ 74.3 µM) | 38 (≈ 157 µM) | 155.00 ± 1.0 | 54.69 | 75 (≈ 310 µM) | 1555 ± 34.1 | 75 (≈ 310 µM) | 2070 | 12.87 ± 0.9 | 38 (≈ 157 µM) | 9 to 18 (≈ 37.2 to 74.3 µM) | 18 (≈ 74.3 µM) | 1910 | 75 (≈ 310 µM) | 1.92 (≈ 7.93 µM) | 105 (≈ 434 µM) | 2.04 (≈ 8.42 µM) | 85.2 (≈ 352 µM) |  |  | MIC ([12]; ATCC29212, Gram (+), Mueller-Hinton broth, 18-24 h, 36 °C, read-out: MIC Ef): 18 µg/mL (≈ 74.3 µM) |
| O=C(C(=O)c1cc(O)cc(O)c1)c1cccc(O)c1 [Compound 13, 1-(3,5-Dihydroxyphenyl)-2-(3-hydroxyphenyl)ethane-1,2-dione] |  | 11 (≈ 42.6 µM) |  | >1000 | 11 (≈ 42.6 µM) | 1844 ± 56.2 |  | > 3870 | 9.42 ± 0.8 | 167 (≈ 647 µM) | 9 to 18 (≈ 34.9 to 69.7 µM) | 11 (≈ 42.6 µM) | > 3870 |  |  |  |  |  |  |  | MIC ([1]; ATCC60193, 48 h): 41 µg/mL (≈ 159 µM); MIC ([4]; RSKK07038, 72 h): 21 µg/mL (≈ 81.3 µM); MIC ([12]; ATCC29212, read-out: MIC Ef): 21 µg/mL (≈ 81.3 µM); MIC ([6]; ATCC25922, read-out: MIC Ec): 167 µg/mL (≈ 647 µM); MIC ([10]; ATCC27853, read-out: MIC Pa): 11 µg/mL (≈ 42.6 µM) |
| O=C(C(=O)c1cccc(OC2O[C@H](CO)[C@@H](O)[C@H](O)[C@H]2O)c1)c1ccccc1 (stereo partly drawn) [Compound 21, 1-(3-O-β -D-Glucopyranosylphenyl)-2-phenylethane-1,2-dione] |  |  | 109.94 ± 19.42 | >1000 |  | 1981.25 ± 28.33 |  | > 2570 | 36.94 ± 1.71 |  |  |  | > 2570 |  |  |  |  |  | 12 to 27 (≈ 30.9 to 69.5 µM) | 12 to 27 (≈ 30.9 to 69.5 µM) |  |
| O=C(C(=O)c1ccc(OC2O[C@H](CO)[C@@H](O)[C@H](O)[C@H]2O)cc1)c1ccccc1 (stereo partly drawn) [Compound 22, 1-(4-O-β -D-Glucopyranosylphenyl)-2-phenylethane-1,2-dione] |  |  | 248.97 ± 34.06 | 212.24 |  | 1845.42 ± 41.36 |  | 342 | 47.54 ± 1.05 |  |  |  | 1360 |  |  |  |  |  | 12 to 27 (≈ 30.9 to 69.5 µM) | 12 to 27 (≈ 30.9 to 69.5 µM) |  |
| O=C(C(=O)c1cccc(OC2O[C@H](CO)[C@@H](O)[C@H](O)[C@H]2O)c1)c1ccc(O)cc1 (stereo partly drawn) [Compound 25, 1-(3-O-β -D-Glucopyranosylphenyl)-2-(4-hydroxyphenyl)ethane-1,2-dione] |  |  | 147.54 ± 25.04 | >1000 |  | 2570.42 ± 25.01 | 8 to 15 (≈ 19.8 to 37.1 µM) | 562 | 26.33 ± 0.39 |  | 8 to 15 (≈ 19.8 to 37.1 µM) |  | 331 |  | 3.38 (≈ 8.36 µM) | 102 (≈ 252 µM) | 2.21 (≈ 5.47 µM) | 81.5 (≈ 202 µM) | 8 to 15 (≈ 19.8 to 37.1 µM) |  |  |
